Results taken from paper PMC8942775, “Lipidated Calcitonin Gene-Related Peptide (CGRP) Peptide Antagonists Retain CGRP Receptor Activity and Attenuate CGRP Action In Vivo” (Frontiers in Pharmacology, 2022).

Experiments:
mAMY1 receptor = molecular target: T1, mAMY1 receptor (Mus musculus, UniProt Q60755+Q9WTJ5); assay: cell-based; details: SEM
T1 sequence (Q60755 42-496 isoform Q60755-2 limits assumed): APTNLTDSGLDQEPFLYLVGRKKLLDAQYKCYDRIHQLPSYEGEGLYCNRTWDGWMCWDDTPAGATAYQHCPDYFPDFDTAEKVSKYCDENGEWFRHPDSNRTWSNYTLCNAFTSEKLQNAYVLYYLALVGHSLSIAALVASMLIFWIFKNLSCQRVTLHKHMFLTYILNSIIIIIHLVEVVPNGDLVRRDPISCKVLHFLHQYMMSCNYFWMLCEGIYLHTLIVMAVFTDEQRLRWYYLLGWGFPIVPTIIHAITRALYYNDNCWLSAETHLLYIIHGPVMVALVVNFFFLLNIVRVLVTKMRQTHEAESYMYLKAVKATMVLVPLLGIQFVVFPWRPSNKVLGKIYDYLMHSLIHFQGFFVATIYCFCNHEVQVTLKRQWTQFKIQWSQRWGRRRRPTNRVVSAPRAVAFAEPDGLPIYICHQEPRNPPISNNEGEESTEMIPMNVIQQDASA
T1 sequence (Q9WTJ5 27-148): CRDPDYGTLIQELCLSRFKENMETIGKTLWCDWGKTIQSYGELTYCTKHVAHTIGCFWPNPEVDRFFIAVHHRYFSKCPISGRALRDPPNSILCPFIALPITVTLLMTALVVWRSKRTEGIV
Protocol: (§1) Cells were grown in a humidified incubator at 37°C and 5% CO2 and seeded into 96-well plates at a density of 20,000 cells/well. The following day, Cos-7 cells were transiently transfected using Polyethylenimine (PEI) using a 1:1 ratio of receptor:RAMP DNA.
(§2) Transfected Cos-7 cells were incubated with agonist in the presence or absence of antagonist at 37°C for 15 min. cAMP production was terminated by aspirating all the media in the wells, followed by the addition of 50 μl of ice-cold ethanol.
(§3) The Hill slope was constrained to one following agonist analyses. The Schild slope was also constrained to one. The pA2 and pKB values were obtained from the Schild analysis. For washout experiments, the same method of analysis was applied to the antagonists, but with minor revisions. The Schild analysis relied on the matched control agonist curves i.e. those derived from the same experimental conditions as the agonist + antagonist curves. Normalization was also specific to the matched control agonist curves.
(§4) Mean pEC50, pKB and pA2 values from at least three independent experiments before normalization were also presented as mean ± SEM. pEC50, pKB and pA2 values from independent experiments were grouped and compared by unpaired Student’s t-test or by one-way ANOVA. […]

mCGRP receptor = mCGRP receptor (Mus musculus, UniProt Q9R1W5+Q9WTJ5); assay: cell-based; details: SEM
Chain of mCGRP receptor (Q9R1W5 23-463, one chain of several): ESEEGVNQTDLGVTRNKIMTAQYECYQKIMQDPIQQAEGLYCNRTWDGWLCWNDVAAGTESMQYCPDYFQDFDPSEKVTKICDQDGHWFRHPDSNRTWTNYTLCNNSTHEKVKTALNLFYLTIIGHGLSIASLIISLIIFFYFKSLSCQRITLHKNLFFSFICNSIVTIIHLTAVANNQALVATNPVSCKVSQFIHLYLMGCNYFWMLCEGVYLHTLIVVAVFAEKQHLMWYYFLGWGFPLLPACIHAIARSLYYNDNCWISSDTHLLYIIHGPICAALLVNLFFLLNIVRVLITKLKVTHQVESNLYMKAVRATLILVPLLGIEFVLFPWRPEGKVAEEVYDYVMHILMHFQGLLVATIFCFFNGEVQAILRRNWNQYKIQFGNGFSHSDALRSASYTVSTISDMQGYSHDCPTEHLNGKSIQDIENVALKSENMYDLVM
Protocol: as §1, §2, §3, §4

CC(C)C[C@H](NC(=O)CNC(=O)[C@H](C)NC(=O)[C@H](CC(C)C)NC(=O)[C@H](CCCNC(=N)N)NC(=O)[C@H](Cc1cnc[nH]1)NC(=O)[C@@H](NC(=O)[C@@H](N)C(C)C)[C@@H](C)O)C(=O)N[C@@H](CC(C)C)C(=O)N[C@@H](CO)C(=O)N[C@@H](CCCNC(=N)N)C(=O)N[C@@H](CO)C(=O)NCC(=O)NCC(=O)N[C@H](C(=O)N[C@H](C(=O)N[C@@H](CCCCN)C(=O)N[C@@H](CC(N)=O)C(=O)N[C@@H](CC(N)=O)C(=O)N[C@@H](Cc1ccccc1)C(=O)N[C@H](C(=O)N1CCC[C@H]1C(=O)N[C@H](C(=O)N[C@@H](CC(N)=O)C(=O)N[C@H](C(=O)NCC(=O)N[C@@H](CO)C(=O)N[C@@H](CCCCN)C(=O)N[C@@H](C)C(=O)N[C@@H](Cc1ccccc1)C(N)=O)C(C)C)[C@@H](C)O)C(C)C)C(C)C)C(C)C [αCGRP8-37]
Kb (mAMY1 receptor): 24.5 nM | Kb (mCGRP receptor): 1 nM
